assay: Human HepG2 cell viability assay in 384 well format; type: toxicity, cell-based; design: dose 125 nL, time 70.5 hour; cytotoxicity at 70.5 h: concentration not given beside the values; settings: HepG2 cells, read-out: Inhibition

| Compound | cytotoxicity at 70.5 h [%] |
| --- | --- |
| CCNc1nnc(CCn2nc(C)c(Br)c2C)s1 | -7.99 |
| Cc1ncnc2c1CCN(C(=O)c1ccnnc1)CC2 | -2.5 |
| Cn1nnc2c1C(COCC1CC1)CN(C(=O)Cc1ccccn1)C2 (stereo not drawn) | -2.19 |
| Fc1cnc(N2CCCC3(CCN(c4ncccn4)C3)C2)nc1 (stereo not drawn) | 13.7 |
| CN(c1ccccc1C(=O)O)S(=O)(=O)c1cccc2cccnc12 | -6.45 |
| Cc1cc(C(F)(F)F)nn1CCCNC(=O)C1CCCC1 | -1.45 |
| CN1CCN(C(=O)Cn2nc(C(F)(F)F)c(Br)c2C2CC2)CC1 | -10.9 |
| O=C(c1ccc(Cn2cc(Br)cn2)cc1)N1CCOCC1 | -7.67 |
| CN1CCN(C(=O)c2ccc(Cn3cc(Br)cn3)cc2)CC1 | -5.22 |
| CCCN1CCN(C(=O)c2ccc(Cn3cc(Br)cn3)cc2)CC1 | -7.06 |
| CCOCCCNC(=O)c1nn(CC)cc1Br | 25.1 |
| O=C(c1ccn(COc2ccc(F)cc2)n1)N1CCCC1 | -7.86 |
| CC(C(=O)Nc1ccccn1)n1ccc(C(F)(F)F)n1 (stereo not drawn) | -15.3 |
| Cc1cccc(NC(=O)C(C)Oc2ccc3c(c2)OCO3)n1 (stereo not drawn) | -3.5 |
| Cc1nn(CC(=O)N2CCN(c3ccc(F)cc3)CC2)c(C)c1Cl | 26.3 |
| COc1ccc(N2CCN(C(=O)Cn3nc(C)c(Cl)c3C)CC2)cc1 | 4.1 |
| CCS(=O)(=O)Nc1ccc2oc(C)c(C(C)=O)c2c1 | 28.3 |
| CC/N=c1/c(NC(=O)NCCOC)c(O)oc2ccccc12 | 30.4 |
| CC/N=c1/c(NC(=O)C2CC2)c(O)oc2ccccc12 | 35.8 |
| CCCN(c1ccccc1C(=O)O)S(=O)(=O)c1cccc2cccnc12 | -10.2 |
| Cc1nn(C)cc1CN(C)C(=O)c1cccnc1 | 8.22 |
| Cc1nn(C)cc1CN(C)C(=O)c1cnccn1 | 1.11 |
| CCn1nccc1CNC(=O)C1CCC1 | -2.95 |
| CCn1nccc1CNC(=O)C1CCCCC1 | -0.635 |

| Compound | cytotoxicity at 70.5 h [%] |
| --- | --- |
| CCn1nccc1CNC(=O)C1CCCO1 (stereo not drawn) | 0.767 |
| CCn1cc(Cl)c(C(=O)NCCOC)n1 | -0.484 |
| CC(C(=O)N1CCN(C)CC1)n1cc(Br)cn1 (stereo not drawn) | -1.37 |
| CCCN1CCN(C(=O)CCn2nc(C(F)(F)F)c(Br)c2C)CC1 | -10.4 |
| Cc1cnc(NC(=O)C(C)Oc2ccc3c(c2)OCO3)s1 (stereo not drawn) | -7.91 |
| Cc1ccc(CNC(=O)c2ccc(F)cc2)o1 | -8.9 |
| O=C(c1n[nH]cc1Br)N1CCOCC1 | -4.31 |
| CC(Cn1cc(Br)cn1)C(=O)Nc1ccc(Cl)cn1 (stereo not drawn) | 4.53 |
| CCn1cc(Cl)c(C(=O)NCc2cnn(C)c2)n1 | -0.0278 |
| CN(C)C(=O)c1ccn(COc2ccccc2Cl)n1 | -2.41 |
| Cc1ccc(F)cc1NC(=O)c1[nH]ncc1Br | -7.98 |
| CCn1cc(Br)c(C(=O)NCc2ccccc2)n1 | 1.89 |
| CCn1nc(C)cc1NC(=O)CCn1nc(C)c(Br)c1C | 10.2 |
| Cc1ccc(NC(=O)CCc2cnn(C)c2)cc1F | -8.37 |
| CCOc1ccc(NC(C)=O)cc1S(=O)(=O)Nc1nccs1 | 22.7 |
| CCOc1ccc(NC(C)=O)cc1S(=O)(=O)Nc1cc(C)on1 | -6.08 |
| Cc1cc(C)n(C2=NC(NCCCO)c3c(sc4c3CCCC4)N2)n1 (stereo not drawn) | -11.9 |
| COc1cccc(NC(=O)C(C)Cn2cc(Cl)cn2)c1 (stereo not drawn) | -7.91 |
| Nc1nnnn1NCc1cccc(Cl)c1Cl | 21.9 |
| CCC1(CC)C(=O)NC(=O)N=C1Nc1ccc(C)cc1 | -10.3 |
| CCn1cc(NS(=O)(=O)c2ccc(Br)s2)c(C(N)=O)n1 | 21.8 |
| CC1CCC(NC(=O)c2nn(C)cc2Br)CC1 (stereo not drawn) | -7.64 |
| CCn1cc(S(=O)(=O)N2CCN(S(=O)(=O)c3ccc(Br)s3)CC2)c(C)n1 | -9.33 |
| CS(=O)(=O)Nc1ccn(Cc2cccc(Cl)c2)n1 | -4.43 |

| Compound | cytotoxicity at 70.5 h [%] |
| --- | --- |
| Cc1nn(CCCNC(=O)C2CCN(S(C)(=O)=O)CC2)c(Cl)c1Cl | -7.28 |
| O=C1[C@H]2CCCC[C@H]2C(=O)N1c1cnn(Cc2cccc(F)c2)c1 | 1.76 |
| O=C(O)CCn1nc(C(F)(F)F)c(Cl)c1C1CC1 | -19.2 |
| Cc1nn(-c2ccccc2)c(C)c1CN1CCNCC1 | 27.3 |
| O=C(O)c1ccn(COc2c(Cl)cccc2Cl)n1 | -7.49 |
| CCn1cc(-c2cc(C(F)F)nc3sc(C(N)=O)c(N)c23)c(C)n1 | -3.39 |
| Cc1ccccc1NCc1nc2n(n1)CCCCC2 | 0.338 |
| Cc1ccc(NCc2nc3n(n2)CCCCC3)c(C)c1 | 6.51 |
| Cc1ccc(C(=O)Cc2c(Cl)nc3n(C)c(=O)n(C)c(=O)n23)cc1 | -9.41 |
| Cn1c(=O)n(C)c2nc(Cl)c(CC(=O)c3ccc(F)cc3)n2c1=O | 0.873 |
| Cc1c(Cl)cccc1NCc1nc2n(n1)CCCCC2 | -7.61 |
| Cc1ccc(Cl)cc1NCc1nc2n(n1)CCCCC2 | 7.47 |
| CCOc1ccc(N2CCCN=C2NC(=O)c2cccc(OC)c2)cc1 | 2.56 |
| CCN1CC(Oc2ccc(Cl)cc2)=NC(SCC(=O)c2ccccc2)=N1 | 12.1 |
| CN1CC(Oc2ccccc2)=NC(SCC(=O)Nc2ccc(Cl)cc2)=N1 | 0.871 |
| CCOC(=O)N1CCN(C(=O)c2cc(-c3ccc(Cl)cc3Cl)on2)CC1 | 0.435 |
| Cc1nn(C)c2c(N3CCN(C(=O)C4CC4)CC3)ncnc12 | 16.2 |
| CCC(=O)N1CCN(c2ncnc3c(C)nn(C)c23)CC1 | 15.4 |
| Cc1nc(N2CCN(C(=O)c3ccco3)CC2)c2c(n1)c(C)nn2C | -6.71 |
| Cc1nc(N2CCN(C(=O)C3CCCC3)CC2)c2c(n1)c(C)nn2C | -0.908 |
| Cc1nc(N2CCN(C(=O)c3ccncc3)CC2)c2c(n1)c(C)nn2C | 19.4 |
| CC(NC(=O)c1ccc(F)cc1F)c1cnn(C)c1 (stereo not drawn) | -4.48 |
| Cc1nn(Cn2ccc(C(=O)N3CCCC(C)C3)n2)c(C)c1Cl (stereo not drawn) | -5.65 |
| CCN1CCCC1(C)c1nc(C)cc(N)n1 (stereo not drawn) | -10.7 |

| Compound | cytotoxicity at 70.5 h [%] |
| --- | --- |
| CCC(=O)N1CCC(Cc2cnc(Nc3cnccn3)cn2)CC1 | -11.1 |
| Cc1cncnc1C1CCN(CCO)CC1 | -7.32 |
| CCc1nnc(Nc2cc(C)nc(C3CCN(c4ncccn4)C3)n2)s1 (stereo not drawn) | 3.49 |
| COc1ccccc1C1CNCCN1C(C)=O (stereo not drawn) | -15.3 |
| CN1CCCC1c1nccnc1-c1ccc(C(=O)O)cc1 (stereo not drawn) | 11 |
| COc1ccccc1C1Cn2c(C)cnc2CN1Cc1c[nH]nc1C (stereo not drawn) | -12.2 |
| COc1cccc(S(=O)(=O)N2C[C@@H](O)[C@H](N(C)C)C2)c1 | -15.9 |
| O=C(CN1CCNC1=O)NCc1ccc2sccc2c1 | -9.13 |
| CCN(CC)S(=O)(=O)N1C[C@@H](c2ccccc2)[C@H]2[C@H]1CCCCCN2C | -1.32 |
| Cn1nc(-c2ccc(F)cc2)cc1C(=O)NCCn1ccnc1 | -10.2 |
| COc1ccc(-c2cc(C(=O)NCCCn3ccnc3C)n(C)n2)cc1 | -4.65 |
| Cc1noc(-c2c[nH]nc2C2CCCN2C(=O)c2ccccc2)c1C (stereo not drawn) | -4.46 |
| Cn1nccc1CN1CCCC(COc2ccccc2F)C1 (stereo not drawn) | -4.6 |
| Cc1cncc(C2CCCN2CC(N)=O)n1 (stereo not drawn) | -2.96 |
| CN(C)c1cccc(C2CCN(C3COCC3O)CC2)n1 (stereo not drawn) | -4.45 |
| Cc1nccc(N2CCCC2CCNS(C)(=O)=O)n1 (stereo not drawn) | -2.97 |
| O=C(c1cc2c(s1)CCC2)N1CCC(c2cnccn2)CC1 | -6.29 |
| NCc1cccc(-c2cccnc2C(=O)NCCN2CCOCC2)c1 | -9.72 |
| O=C(c1ccc(-n2cccn2)nc1)N1CCCC(c2cnccn2)C1 (stereo not drawn) | -4.09 |
| COCCNc1nnc(-c2ccc(C)nc2)s1 | 1.91 |
| O=C(O)c1cncc(Cc2ccccc2F)c1 | -6.6 |
| O=C(O)c1cncc(Cc2ccc(F)cc2)c1 | -7.6 |
| O=C(O)c1ccc(Cc2cccc(F)c2)nc1 | -3.84 |
| O=C(O)c1cncc(Cc2cccc(F)c2)c1 | -7.96 |

| Compound | cytotoxicity at 70.5 h [%] |
| --- | --- |
| CNC(=O)C1(C)CCCN1Cc1cnn(C)c1C (stereo not drawn) | -8.11 |
| CNC(=O)c1cccc(CC2COCCN(Cc3ccsc3)C2)n1 (stereo not drawn) | -6.49 |
| Fc1cccc(CN2CCC(c3noc(-c4cnccn4)n3)CC2)c1F | -0.815 |
| CC(=O)N1Cc2ccccc2OC2(CCN(C(=O)C3CC3)CC2)C1 | 25.4 |
| Cn1c(C(=O)NC(Cc2ccsc2)c2cccnc2)cc(=O)n(C)c1=O (stereo not drawn) | -0.464 |
| Cc1csc(C(Cc2ccsc2)NC(=O)c2cc(=O)n(C)c(=O)n2C)n1 (stereo not drawn) | -4.94 |
| COc1cc2cc3c(nc2cc1OC)OCCN(CC1CC1)C3 | -2.88 |
| COc1cc2cc3c(nc2cc1OC)OCCN(Cc1ccco1)C3 | 8.51 |
| COc1ccc(-c2cc(C3CCCNC3)ccn2)cc1 (stereo not drawn) | -12.4 |
| O=C(C1CCCC1)N1C[C@@H](c2ccsc2)[C@@H]2CN(C3CCCC3)CC[C@@H]21 | -8.32 |
| Oc1cc(C2CCNCC2)nc(-c2ccsc2)n1 | -4.35 |
| CC(C)(C)C(=O)N1C[C@H](c2ccsc2)[C@H]2CN(C3CCCC3)CC[C@H]21 | -4.45 |
| CN(C)Cc1cc(C2CCCCN2S(=O)(=O)Cc2ccccc2)nn1C (stereo not drawn) | -14.1 |
| O=C(NC1CCCC1)c1cc(C2CCCNC2)n[nH]1 (stereo not drawn) | -3.17 |
| O=C(NC1CCCC1)C1(Cc2cc(C3CCOC3)no2)CCNCC1 (stereo not drawn) | -5 |
| Cc1nnc(N2C[C@@H](OCC3CCCC3)[C@H]3OCCC[C@H]32)s1 | -5.21 |
| Cc1ccc(N2CCCc3sc(C(=O)NCCC#N)nc32)nn1 | -4.91 |
| CN(C)C(=O)NCc1cc(=O)n2c(n1)CN(Cc1ccoc1)CCC2 | 16.4 |
| CC(C)N(C)Cc1n[nH]c2c1CCN(C(=O)c1ccc[nH]1)C2 | 21 |
| Cc1nnc(N2CCO[C@H]3[C@@H](OCc4ccccn4)CC[C@@H]32)s1 | -2.28 |
| Cc1cc(Nc2ccccn2)nc(C2CCCN(CCO)C2)n1 (stereo not drawn) | -8.92 |
| Cc1cnc(NS(=O)(=O)c2ccccc2)s1 | -10 |

Source: ChEMBL document CHEMBL3507680, “University of Dundee, Gates Library screen for HepG2 cell viability”
